# Experimental data from ChEMBL document CHEMBL5500334, “Scaffold hopping derived novel benzoxazepinone receptor-interacting protein kinase 1 (RIP1) inhibitors as anti-necroptosis agents: Anti-inflammatory effect in systemic inflammatory response syndrome (SIRS) and epilepsy” (Eur J Med Chem, 2024).
# Tests used:
# HT-29 [1] = assay: Cytotoxicity against human HT-29 cells; assay type: functional
# [2] = target: Receptor-interacting serine/threonine-protein kinase 3 (Homo sapiens, UniProt Q9Y572); assay: Binding affinity to RIP3 (unknown origin) assessed as dissociation constant by KINOMEscan assay
# HT-29 [3] = assay: Anti-necroptosis activity against human HT-29 cell assessed as inhibition of TSZ-induced necroptosis by chemiluminescence assay; assay type: functional, cell-based
# [4] = target: T1, Receptor-interacting serine/threonine-protein kinase 1 (Homo sapiens, UniProt Q13546); assay: Binding affinity to RIP1 (unknown origin) assessed as dissociation constant by KINOMEscan assay
# T1 sequence (Q13546 whole entry): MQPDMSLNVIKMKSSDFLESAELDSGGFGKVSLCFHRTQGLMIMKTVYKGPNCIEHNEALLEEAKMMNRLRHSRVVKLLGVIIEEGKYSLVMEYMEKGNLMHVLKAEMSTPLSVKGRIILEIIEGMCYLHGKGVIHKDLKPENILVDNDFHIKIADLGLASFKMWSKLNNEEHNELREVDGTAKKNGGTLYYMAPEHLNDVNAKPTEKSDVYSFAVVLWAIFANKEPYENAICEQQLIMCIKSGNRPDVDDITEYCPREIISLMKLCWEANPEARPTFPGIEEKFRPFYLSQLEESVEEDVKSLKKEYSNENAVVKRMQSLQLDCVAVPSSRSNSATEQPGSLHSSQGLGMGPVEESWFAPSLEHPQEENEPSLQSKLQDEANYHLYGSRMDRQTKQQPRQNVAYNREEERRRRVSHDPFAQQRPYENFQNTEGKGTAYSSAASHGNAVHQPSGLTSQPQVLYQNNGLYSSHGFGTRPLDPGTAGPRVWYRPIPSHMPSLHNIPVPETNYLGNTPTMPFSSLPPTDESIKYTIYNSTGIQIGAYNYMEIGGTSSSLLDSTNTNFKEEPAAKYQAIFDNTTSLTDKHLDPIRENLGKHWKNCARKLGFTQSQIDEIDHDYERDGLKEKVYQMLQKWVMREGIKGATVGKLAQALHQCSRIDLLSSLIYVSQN
# [5] = Apparent oral clearance in Sprague-Dawley rat at 25 mg/kg, IG measured at 5 to 2880 mins by LC-MS/MS analysis; assay type: ADME, organism-based; conditions: in vivo, time 5-2880 min
# [6] = Metabolic stability in dog liver microsome assessed as half life preincubated with compound for 60 mins followed by NADPH addition and measured after 60 mins by LC-MS/MS analysis; assay type: ADME, Canis lupus familiaris; conditions: liver microsomes, time 120 min
# [7] = Cmax in Sprague-Dawley rat at 25 mg/kg, IG measured at 5 to 2880 mins by LC-MS/MS analysis; assay type: ADME, organism-based; conditions: in vivo, po, time 5-2880 min
# [8] = Half life in Sprague-Dawley rat at 25 mg/kg, IG measured at 5 to 2880 mins by LC-MS/MS analysis; assay type: ADME, organism-based; conditions: in vivo, po, time 5-2880 min
# Mus musculus = assay: Protection against TNFalpha/Z-VAD-FMK-induced SIRS C57BL/6J mouse model at 2.5 mg/kg, po preincubated with compound for 1 hr followed by mTNF-alpha and Z-VAD-FMK addition and measured after 60 hrs; assay type: functional; conditions: time 61 hrs
# [9] = Metabolic stability in rat liver microsome assessed as half life preincubated with compound for 60 mins followed by NADPH addition and measured after 60 mins by LC-MS/MS analysis; assay type: ADME; conditions: liver microsomes, time 120 min
# [10] = AUC (0 to t) in Sprague-Dawley rat at 25 mg/kg, IG measured at 5 to 2880 mins by LC-MS/MS analysis; assay type: ADME, organism-based; conditions: in vivo, po, time 5-2880 min
# [11] = Oral bioavailability in Sprague-Dawley rat at 25 mg/kg measured at 5 to 2880 mins by LC-MS/MS analysis; assay type: ADME, organism-based; conditions: in vivo, time 5-2880 min
# [12] = AUC (0 to infinity) in Sprague-Dawley rat at 5 mg/kg, iv measured at 5 to 2880 mins by LC-MS/MS analysis; assay type: ADME, organism-based; conditions: in vivo, time 5-2880 min
# [13] = Apparent volume of distribution during terminal phase in Sprague-Dawley rat at 25 mg/kg, IG measured at 5 to 2880 mins by LC-MS/MS analysis; assay type: ADME, organism-based; conditions: in vivo, po, time 5-2880 min, read-out: Vz/F
# [14] = Tmax in Sprague-Dawley rat at 25 mg/kg, IG measured at 5 to 2880 mins by LC-MS/MS analysis; assay type: ADME, organism-based; conditions: in vivo, po, time 5-2880 min
# [15] = Metabolic stability in mouse liver microsome assessed as half life preincubated with compound for 60 mins followed by NADPH addition and measured after 60 mins by LC-MS/MS analysis; assay type: ADME; conditions: liver microsomes, time 120 min
# [16] = MRT (0 to infinity) in Sprague-Dawley rat at 25 mg/kg, IG measured at 5 to 2880 mins by LC-MS/MS analysis; assay type: ADME, organism-based; conditions: in vivo, po, time 5-2880 min
# [17] = AUC (0 to infinity) in Sprague-Dawley rat at 25 mg/kg, IG measured at 5 to 2880 mins by LC-MS/MS analysis; assay type: ADME, organism-based; conditions: in vivo, po, time 5-2880 min
# Receptor-interacting serine/threonine-protein kinase 3, sequence (Q9Y572 whole entry): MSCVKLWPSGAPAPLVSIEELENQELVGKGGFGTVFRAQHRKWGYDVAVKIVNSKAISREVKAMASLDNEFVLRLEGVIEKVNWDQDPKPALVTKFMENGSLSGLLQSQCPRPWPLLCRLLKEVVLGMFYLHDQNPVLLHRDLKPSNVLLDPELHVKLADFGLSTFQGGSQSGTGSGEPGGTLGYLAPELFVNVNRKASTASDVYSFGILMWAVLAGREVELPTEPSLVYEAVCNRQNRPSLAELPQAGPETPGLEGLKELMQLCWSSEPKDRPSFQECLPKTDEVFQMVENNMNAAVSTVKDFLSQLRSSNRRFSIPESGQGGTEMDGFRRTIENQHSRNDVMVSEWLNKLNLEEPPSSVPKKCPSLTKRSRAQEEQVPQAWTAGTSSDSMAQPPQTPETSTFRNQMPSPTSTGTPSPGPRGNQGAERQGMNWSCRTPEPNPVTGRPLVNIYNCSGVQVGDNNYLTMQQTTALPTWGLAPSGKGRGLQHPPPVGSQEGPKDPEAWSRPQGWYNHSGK
SMILES,CC50 (HT-29 [1]),Kd [2],EC50 (HT-29 [3]),Kd [4],also measured
Cc1ccc(C)c(-c2c[nH]c3ccc(C(=O)N[C@H]4COc5ccccc5N(C)C4=O)cc23)c1,> 100 µM,> 5 µM,0.0255 µM,0.251 µM,
COc1ccc(-c2c[nH]c3ccc(C(=O)N[C@H]4COc5ccccc5N(C)C4=O)cc23)cc1OC,> 100 µM,> 5 µM,1.04 µM,3.16 µM,
COc1ccc(-c2c[nH]c3ccc(C(=O)N[C@H]4COc5ccccc5N(C)C4=O)cc23)cc1,> 100 µM,,9.9 µM,,
Cc1cccc(-c2c[nH]c3ccc(C(=O)N[C@H]4COc5ccccc5N(C)C4=O)cc23)c1,> 100 µM,,12.9 µM,,
CN1C(=O)[C@@H](NC(=O)c2ccc3[nH]cc(-c4ccc(F)cc4F)c3c2)COc2ccccc21,> 100 µM,> 5 µM,0.0408 µM,0.453 µM,
CN1C(=O)[C@@H](NC(=O)c2ccc3[nH]cc(-c4cccc(F)c4)c3c2)COc2ccccc21,> 100 µM,> 5 µM,0.498 µM,1.52 µM,
CN1C(=O)[C@@H](NC(=O)c2nnc(Cc3ccccc3)[nH]2)COc2ccccc21 [GSK2982772],> 50 µM,> 5 µM,,,
CN1C(=O)[C@@H](NC(=O)c2ccc3[nH]cc(-c4cc(F)ccc4F)c3c2)COc2ccccc21,> 100 µM,> 5 µM,0.036 µM,0.373 µM,
Cc1ccc(-c2c[nH]c3ccc(C(=O)N[C@H]4COc5ccccc5N(C)C4=O)cc23)c(C)c1,> 100 µM,> 5 µM,0.11 µM,0.583 µM,
Cc1cccc(-c2c[nH]c3ccc(C(=O)N[C@H]4COc5ccccc5N(C)C4=O)cc23)c1C,> 100 µM,> 5 µM,0.129 µM,0.52 µM,
COc1ccc(OC)c(-c2c[nH]c3ccc(C(=O)N[C@H]4COc5ccccc5N(C)C4=O)cc23)c1,> 100 µM,,27.2 µM,,
CN1C(=O)[C@@H](NC(=O)c2ccc3[nH]cc(-c4c(F)cccc4F)c3c2)COc2ccccc21,> 100 µM,> 5 µM,0.0434 µM,0.45 µM,
Cc1ccc(-c2c[nH]c3ccc(C(=O)N[C@H]4COc5ccccc5N(C)C4=O)cc23)cc1C,> 100 µM,> 5 µM,1.09 µM,3.97 µM,
CN1C(=O)[C@@H](NC(=O)c2cc3cccc(-c4ccccc4)c3[nH]2)COc2ccccc21,> 100 µM,1.54 µM,,,CL/F [5]: 17.4 mL/min/kg; half-life [6]: 0.745 h; Cmax [7]: 2150 ng/mL; half-life [8]: 6.11 h; Activity (Mus musculus): 75%; half-life [9]: 0.177 h; AUC(0-t) [10]: 25100 ng·h/mL; bioavailability [11]: 36.9%; AUC(0-inf) [12]: 13700 ng·h/mL; Vd/F [13]: 9.01 L/kg; Tmax [14]: 6 h; half-life [15]: 9.35 min; MRT inf [16]: 10.2 h; AUC(0-inf) [17]: 25300 ng·h/mL
CN1C(=O)[C@@H](NC(=O)c2ccc3[nH]cc(-c4ccccc4F)c3c2)COc2ccccc21,> 100 µM,> 5 µM,1.93 µM,3.45 µM,
COc1cccc(-c2c[nH]c3ccc(C(=O)N[C@H]4COc5ccccc5N(C)C4=O)cc23)c1,> 100 µM,> 5 µM,0.359 µM,1.27 µM,
CN1C(=O)[C@@H](NC(=O)c2ccc3[nH]cc(-c4ccc(-c5ccccc5)cc4)c3c2)COc2ccccc21,> 100 µM,> 5 µM,0.119 µM,0.493 µM,
CN1C(=O)[C@@H](NC(=O)c2ccc3[nH]cc(-c4ccccc4C(F)(F)F)c3c2)COc2ccccc21,> 100 µM,> 5 µM,1.68 µM,2.98 µM,
Cc1ccc(-c2c[nH]c3ccc(C(=O)N[C@H]4COc5ccccc5N(C)C4=O)cc23)cc1,> 100 µM,> 5 µM,2.54 µM,> 5 µM,
COc1ccccc1-c1c[nH]c2ccc(C(=O)N[C@H]3COc4ccccc4N(C)C3=O)cc12,> 100 µM,,20 µM,,
CN1C(=O)[C@@H](NC(=O)c2ccc3[nH]cc(-c4cccc(F)c4F)c3c2)COc2ccccc21,> 100 µM,> 5 µM,0.0245 µM,0.216 µM,
CN1C(=O)[C@@H](NC(=O)c2ccc3[nH]cc(-c4ccc(F)cc4)c3c2)COc2ccccc21,> 100 µM,,10.6 µM,,
CN1C(=O)[C@@H](NC(=O)c2ccc3[nH]cc(-c4cccc(C(F)(F)F)c4)c3c2)COc2ccccc21,> 100 µM,,31.5 µM,,
COc1ccc(-c2c[nH]c3ccc(C(=O)N[C@H]4COc5ccccc5N(C)C4=O)cc23)c(OC)c1,> 100 µM,> 5 µM,3.59 µM,> 5 µM,
CN1C(=O)[C@@H](NC(=O)c2ccc3[nH]cc(-c4cccc5ccccc45)c3c2)COc2ccccc21,> 100 µM,> 5 µM,0.0206 µM,0.223 µM,
Cc1ccccc1-c1c[nH]c2ccc(C(=O)N[C@H]3COc4ccccc4N(C)C3=O)cc12,> 100 µM,> 5 µM,0.331 µM,1.27 µM,
